Reference: patent publication US10710978B2, “STK4 inhibitors for treatment of hematologic malignancies” (Dana-Farber Cancer Institute, Inc., priority 2015, dated 2020)
Like-named read-outs stand apart in the source and are kept apart here.

Assays:
MAP3K4 = MAP3K4 (Homo sapiens (Human), UniProt Q9Y6R4); assay: KiNativ assay; type: binding; details: H929 live cell
Method: (§1) Biochemical IC50s of the compounds of the present disclosure against various kinases were measured in a KiNativ assay. Compounds were screened in duplicate at 10 μM in H929 live cell. IC50 was measured via Mass spectroscopy (MS).

PI4KA, PI4KAP2 = assay: KiNativ assay; type: binding; details: H929 live cell; for % inhibition: 10 μM, range class
Method: as §1

HPK1 = HPK1 (Homo sapiens (Human), UniProt Q92918); assay: KiNativ assay; type: binding; details: H929 live cell
Method: as §1

PKCi = PKCi (Homo sapiens (Human), UniProt P41743); assay: KiNativ assay; type: binding; details: H929 live cell
Method: as §1

MST4 = assay: KiNativ assay; type: binding; details: H929 live cell; for % inhibition: 10 μM, range class
Method: as §1

MST3 = MST3 (Homo sapiens (Human), UniProt Q9Y6E0); assay: KiNativ assay; type: binding; details: H929 live cell
Method: as §1

PKN1 = PKN1 (Homo sapiens (Human), UniProt Q16512); assay: KiNativ assay; type: binding; details: H929 live cell
Method: as §1

TLK1 = TLK1 (Homo sapiens (Human), UniProt Q9UKI8); assay: KiNativ assay; type: binding; details: H929 live cell
Method: as §1

CaMKK2 = CaMKK2 (Homo sapiens (Human), UniProt Q96RR4); assay: KiNativ assay; type: binding; details: H929 live cell
Method: as §1

PLK1 = PLK1 (Homo sapiens (Human), UniProt P53350); assay: KiNativ assay; type: binding; details: H929 live cell
Method: as §1

OSR1 = OSR1 (Homo sapiens (Human), UniProt O95747); assay: KiNativ assay; type: binding; details: H929 live cell
Method: as §1

NEK7 = NEK7 (Homo sapiens (Human), UniProt Q8TDX7); assay: KiNativ assay; type: binding; details: H929 live cell
Method: as §1

AMPKa1, AMPKa2 = assay: KiNativ assay; type: binding; details: H929 live cell; for % inhibition: 10 μM, range class
Method: as §1

RSK1 domain1 = RSK1 domain1 (Homo sapiens (Human), UniProt Q15418); assay: KiNativ assay; type: binding; details: H929 live cell
Method: as §1

FYN, SRC, YES = assay: KiNativ assay; type: binding; details: H929 live cell; for % inhibition: 10 μM, range class
Method: as §1

STLK5 = STLK5 (Homo sapiens (Human), UniProt Q7RTN6); assay: KiNativ assay; type: binding; details: H929 live cell
Method: as §1

MAP2K3 = MAP2K3 (Homo sapiens (Human), UniProt P46734); assay: KiNativ assay; type: binding; details: H929 live cell
Method: as §1

AurA = AurA (Homo sapiens (Human), UniProt O14965); assay: KiNativ assay; type: binding; details: H929 live cell
Method: as §1

PIP5K3 = PIP5K3 (Homo sapiens (Human), UniProt Q9Y2I7); assay: KiNativ assay; type: binding; details: H929 live cell
Method: as §1

PIP4K2C = PIP4K2C (Homo sapiens (Human), UniProt Q8TBX8); assay: KiNativ assay; type: binding; details: H929 live cell
Method: as §1

MLKL = MLKL (Homo sapiens (Human), UniProt Q8NB16); assay: KiNativ assay; type: binding; details: H929 live cell
Method: as §1

MSK1 domain1 = MSK1 domain1 (Homo sapiens (Human), UniProt O75582); assay: KiNativ assay; type: binding; details: H929 live cell
Method: as §1

CDK2 = CDK2 (Homo sapiens (Human), UniProt P24941); assay: KiNativ assay; type: binding; details: H929 live cell
Method: as §1

IKKe, TBK1 = assay: KiNativ assay; type: binding; details: H929 live cell; for % inhibition: 10 μM, range class
Method: as §1

p38a = p38a (Homo sapiens (Human), UniProt Q16539); assay: KiNativ assay; type: binding; details: H929 live cell, range class, read-out: % inhibition
Method: as §1

NuaK1 = NuaK1 (Homo sapiens (Human), UniProt O60285); assay: KiNativ assay; type: binding; details: H929 live cell
Method: as §1

TLK2 = TLK2 (Homo sapiens (Human), UniProt Q86UE8); assay: KiNativ assay; type: binding; details: H929 live cell
Method: as §1

STK4 (MST1) = STK4 (MST1) (Homo sapiens (Human), UniProt Q13043); assay: Z-lyte biochemical IC50 assay (Invitrogen); details: ATP concentration matched the Km
Outline: (§2)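 FRET-based Z-lyte kinase assays run at Invitrogen, ATP at each kinase's Km; for STK4, 6.25-160 ng enzyme with 2 μM Ser/Thr 07 peptide in HEPES pH 7.5, MgCl2, EGTA, Brij-35, 1 h reaction then development reagent. 10-point 3-fold titration from 10 μM.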

STK24 (MST3) = STK24 (MST3) (Homo sapiens (Human), UniProt Q9Y6E0); assay: Z-lyte biochemical IC50 assay (Invitrogen); details: ATP concentration matched the Km
Outline: as §2

[1] = range class, read-out: % inhibition

Chain of RSK1 domain1 (Q15418 whole entry, the tested form may be a part): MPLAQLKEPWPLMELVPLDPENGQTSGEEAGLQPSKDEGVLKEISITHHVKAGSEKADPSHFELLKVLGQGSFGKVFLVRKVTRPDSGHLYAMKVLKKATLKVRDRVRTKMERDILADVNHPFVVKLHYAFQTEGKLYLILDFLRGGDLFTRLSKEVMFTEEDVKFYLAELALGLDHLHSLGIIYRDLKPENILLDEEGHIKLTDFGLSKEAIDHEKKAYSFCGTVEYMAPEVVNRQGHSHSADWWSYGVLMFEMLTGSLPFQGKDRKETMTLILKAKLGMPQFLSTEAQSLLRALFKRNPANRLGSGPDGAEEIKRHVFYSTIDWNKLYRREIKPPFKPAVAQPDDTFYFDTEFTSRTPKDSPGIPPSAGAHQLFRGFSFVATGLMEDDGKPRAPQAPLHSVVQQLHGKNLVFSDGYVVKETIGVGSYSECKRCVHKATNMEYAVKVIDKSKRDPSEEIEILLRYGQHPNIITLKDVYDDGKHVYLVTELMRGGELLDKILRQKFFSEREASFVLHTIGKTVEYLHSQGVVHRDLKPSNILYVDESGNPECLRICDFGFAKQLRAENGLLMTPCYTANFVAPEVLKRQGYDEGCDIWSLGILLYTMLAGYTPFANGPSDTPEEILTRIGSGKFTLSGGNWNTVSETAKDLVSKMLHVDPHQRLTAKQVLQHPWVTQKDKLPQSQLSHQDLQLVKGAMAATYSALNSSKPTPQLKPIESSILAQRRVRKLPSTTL
Chain of HPK1 (Q92918 whole entry): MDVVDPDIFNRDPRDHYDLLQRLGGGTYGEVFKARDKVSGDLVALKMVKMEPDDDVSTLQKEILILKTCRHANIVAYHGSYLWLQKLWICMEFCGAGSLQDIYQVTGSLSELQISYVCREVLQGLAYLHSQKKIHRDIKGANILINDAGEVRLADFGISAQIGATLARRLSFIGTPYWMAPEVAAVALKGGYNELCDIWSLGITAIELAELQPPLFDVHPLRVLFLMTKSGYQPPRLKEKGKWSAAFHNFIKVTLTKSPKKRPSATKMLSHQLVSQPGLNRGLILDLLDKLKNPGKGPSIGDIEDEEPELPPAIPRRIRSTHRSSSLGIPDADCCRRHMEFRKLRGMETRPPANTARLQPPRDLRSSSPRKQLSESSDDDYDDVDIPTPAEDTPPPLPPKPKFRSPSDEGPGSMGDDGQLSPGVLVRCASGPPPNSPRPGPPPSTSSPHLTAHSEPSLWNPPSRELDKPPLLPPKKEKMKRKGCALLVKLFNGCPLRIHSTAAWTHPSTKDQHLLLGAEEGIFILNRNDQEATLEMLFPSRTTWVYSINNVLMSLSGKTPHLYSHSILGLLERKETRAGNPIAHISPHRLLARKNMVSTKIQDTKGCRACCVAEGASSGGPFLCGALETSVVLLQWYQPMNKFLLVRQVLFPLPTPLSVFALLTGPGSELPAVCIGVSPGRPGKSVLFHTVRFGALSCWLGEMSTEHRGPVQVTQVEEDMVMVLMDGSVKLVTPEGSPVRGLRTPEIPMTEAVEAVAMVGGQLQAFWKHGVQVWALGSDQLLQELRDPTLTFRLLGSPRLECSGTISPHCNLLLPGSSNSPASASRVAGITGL
Chain of MAP3K4 (Q9Y6R4 whole entry): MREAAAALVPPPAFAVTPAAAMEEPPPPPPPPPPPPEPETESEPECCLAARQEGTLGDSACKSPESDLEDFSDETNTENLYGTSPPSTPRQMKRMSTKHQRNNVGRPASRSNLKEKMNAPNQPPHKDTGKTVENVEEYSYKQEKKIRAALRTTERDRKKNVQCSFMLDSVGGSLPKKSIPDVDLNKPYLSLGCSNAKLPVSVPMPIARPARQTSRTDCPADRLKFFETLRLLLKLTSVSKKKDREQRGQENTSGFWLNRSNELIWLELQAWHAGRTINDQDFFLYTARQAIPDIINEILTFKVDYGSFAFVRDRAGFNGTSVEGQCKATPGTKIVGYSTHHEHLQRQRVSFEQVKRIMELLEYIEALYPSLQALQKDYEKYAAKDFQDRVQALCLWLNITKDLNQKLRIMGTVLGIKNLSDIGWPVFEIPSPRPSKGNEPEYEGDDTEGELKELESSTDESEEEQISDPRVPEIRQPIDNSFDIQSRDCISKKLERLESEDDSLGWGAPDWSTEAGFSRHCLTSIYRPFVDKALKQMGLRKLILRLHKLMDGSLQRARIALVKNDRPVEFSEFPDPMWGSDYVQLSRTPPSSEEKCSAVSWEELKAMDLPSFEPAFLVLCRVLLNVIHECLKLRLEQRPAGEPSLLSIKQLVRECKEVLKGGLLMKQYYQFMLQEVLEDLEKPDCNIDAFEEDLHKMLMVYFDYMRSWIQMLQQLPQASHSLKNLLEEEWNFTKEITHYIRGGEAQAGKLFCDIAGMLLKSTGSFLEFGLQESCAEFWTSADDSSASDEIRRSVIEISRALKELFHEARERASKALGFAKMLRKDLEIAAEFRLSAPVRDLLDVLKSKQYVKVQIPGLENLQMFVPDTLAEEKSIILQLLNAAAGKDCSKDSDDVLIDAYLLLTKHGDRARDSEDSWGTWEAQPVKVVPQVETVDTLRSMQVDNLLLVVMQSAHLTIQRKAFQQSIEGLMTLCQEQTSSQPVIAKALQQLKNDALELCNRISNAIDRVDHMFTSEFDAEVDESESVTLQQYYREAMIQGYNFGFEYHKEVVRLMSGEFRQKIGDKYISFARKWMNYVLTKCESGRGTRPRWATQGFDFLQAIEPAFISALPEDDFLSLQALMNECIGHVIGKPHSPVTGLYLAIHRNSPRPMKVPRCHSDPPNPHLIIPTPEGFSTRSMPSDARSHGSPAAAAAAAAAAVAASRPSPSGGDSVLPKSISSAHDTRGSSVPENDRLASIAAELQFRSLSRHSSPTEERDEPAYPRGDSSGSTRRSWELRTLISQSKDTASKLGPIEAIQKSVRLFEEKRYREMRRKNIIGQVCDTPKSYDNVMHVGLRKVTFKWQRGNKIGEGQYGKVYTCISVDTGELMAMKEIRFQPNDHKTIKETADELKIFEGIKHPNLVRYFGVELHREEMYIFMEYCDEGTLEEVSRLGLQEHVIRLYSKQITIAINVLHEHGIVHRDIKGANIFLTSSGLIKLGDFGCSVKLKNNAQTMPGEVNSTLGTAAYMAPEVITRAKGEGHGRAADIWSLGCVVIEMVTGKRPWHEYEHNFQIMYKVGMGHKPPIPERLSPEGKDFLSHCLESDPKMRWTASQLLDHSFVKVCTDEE
Chain of AurA (O14965 whole entry): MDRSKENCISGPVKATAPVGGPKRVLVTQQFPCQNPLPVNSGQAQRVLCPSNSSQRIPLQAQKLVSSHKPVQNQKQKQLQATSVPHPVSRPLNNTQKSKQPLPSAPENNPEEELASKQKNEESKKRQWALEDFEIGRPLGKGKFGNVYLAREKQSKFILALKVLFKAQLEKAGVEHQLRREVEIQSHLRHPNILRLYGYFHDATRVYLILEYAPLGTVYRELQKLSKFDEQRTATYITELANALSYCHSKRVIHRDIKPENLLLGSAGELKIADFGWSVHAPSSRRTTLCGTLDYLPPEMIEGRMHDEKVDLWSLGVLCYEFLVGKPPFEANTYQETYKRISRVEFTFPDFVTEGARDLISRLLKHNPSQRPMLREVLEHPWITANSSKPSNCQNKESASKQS
Chain of NuaK1 (O60285 whole entry): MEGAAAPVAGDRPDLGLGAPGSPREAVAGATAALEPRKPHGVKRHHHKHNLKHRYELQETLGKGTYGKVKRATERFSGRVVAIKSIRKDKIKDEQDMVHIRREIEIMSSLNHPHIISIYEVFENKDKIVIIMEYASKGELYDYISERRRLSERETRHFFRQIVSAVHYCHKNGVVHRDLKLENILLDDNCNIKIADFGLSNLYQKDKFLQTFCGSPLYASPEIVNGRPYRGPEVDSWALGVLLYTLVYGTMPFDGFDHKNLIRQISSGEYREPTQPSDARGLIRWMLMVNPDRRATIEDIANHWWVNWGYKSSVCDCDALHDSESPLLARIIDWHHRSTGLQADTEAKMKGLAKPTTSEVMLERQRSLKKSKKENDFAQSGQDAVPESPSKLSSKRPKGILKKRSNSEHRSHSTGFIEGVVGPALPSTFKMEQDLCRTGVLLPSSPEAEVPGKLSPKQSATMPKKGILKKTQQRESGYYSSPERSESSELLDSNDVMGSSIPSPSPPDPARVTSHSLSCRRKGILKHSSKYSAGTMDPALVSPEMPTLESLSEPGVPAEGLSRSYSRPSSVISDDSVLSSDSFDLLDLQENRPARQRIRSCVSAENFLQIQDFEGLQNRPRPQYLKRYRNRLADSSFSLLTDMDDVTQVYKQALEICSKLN
Chain of TLK1 (Q9UKI8 whole entry): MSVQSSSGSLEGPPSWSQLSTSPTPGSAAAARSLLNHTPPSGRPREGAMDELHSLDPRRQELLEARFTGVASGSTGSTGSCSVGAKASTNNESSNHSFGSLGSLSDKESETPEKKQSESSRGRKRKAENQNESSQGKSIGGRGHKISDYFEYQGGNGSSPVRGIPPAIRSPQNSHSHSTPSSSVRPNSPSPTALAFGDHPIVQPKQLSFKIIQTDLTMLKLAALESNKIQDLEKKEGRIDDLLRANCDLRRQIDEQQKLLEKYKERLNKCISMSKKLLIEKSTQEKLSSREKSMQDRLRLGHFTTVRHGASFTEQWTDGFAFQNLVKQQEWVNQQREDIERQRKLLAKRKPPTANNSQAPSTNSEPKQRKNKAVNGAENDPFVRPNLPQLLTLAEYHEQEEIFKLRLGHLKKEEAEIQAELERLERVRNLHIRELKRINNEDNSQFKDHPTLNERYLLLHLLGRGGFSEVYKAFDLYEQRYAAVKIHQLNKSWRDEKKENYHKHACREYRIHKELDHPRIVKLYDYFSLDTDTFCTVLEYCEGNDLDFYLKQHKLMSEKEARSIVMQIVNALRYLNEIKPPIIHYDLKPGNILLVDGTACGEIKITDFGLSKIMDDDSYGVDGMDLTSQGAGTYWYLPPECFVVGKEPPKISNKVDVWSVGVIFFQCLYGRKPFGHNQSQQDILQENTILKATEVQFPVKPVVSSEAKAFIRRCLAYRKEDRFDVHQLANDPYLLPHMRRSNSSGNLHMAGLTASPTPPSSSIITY

Nc1ncc(-c2ccc(NS(=O)(=O)C3CC3)cc2F)cc1-c1ccc2c(c1)CCNC2=O [Compound I-51, N-(4-(6-amino-5-(1-oxo-1,2,3,4-tetrahydroisoquinolin-6-yl)pyridin-3-yl)-3-fluorophenyl) cyclopropanesulfonamide]
inhibition at 10 µM (MAP3K4; [1]): 0%
inhibition at 10 µM (MAP3K4; read-out: inhibition (10 μM)): 24.2%
% inhibition (PI4KA, PI4KAP2): 0.0%
inhibition (10 μM) (PI4KA, PI4KAP2): 0.1%
inhibition at 10 µM (HPK1; [1]): 75 to 90%
inhibition at 10 µM (HPK1; read-out: inhibition (10 μM)): 83.5%
inhibition at 10 µM (PKCi; [1]): 0%
inhibition at 10 µM (PKCi; read-out: inhibition (10 μM)): -49.1%
% inhibition (MST4): 0.0%
inhibition (10 μM) (MST4): 33.9%
inhibition at 10 µM (MST3; [1]): 50 to 75%
inhibition at 10 µM (MST3; read-out: inhibition (10 μM)): 53.3%
inhibition at 10 µM (PKN1; [1]): 0%
inhibition at 10 µM (PKN1; read-out: inhibition (10 μM)): -72.1%
inhibition at 10 µM (TLK1; [1]): 0%
inhibition at 10 µM (TLK1; read-out: inhibition (10 μM)): -11.8%
inhibition at 10 µM (CaMKK2; [1]): 75 to 90%
inhibition at 10 µM (CaMKK2; read-out: inhibition (10 μM)): 78.5%
inhibition at 10 µM (PLK1; [1]): 0%
inhibition at 10 µM (PLK1; read-out: inhibition (10 μM)): -20.6%
inhibition at 10 µM (OSR1; [1]): 0%
inhibition at 10 µM (OSR1; read-out: inhibition (10 μM)): 8.8%
inhibition at 10 µM (NEK7; [1]): 0%
inhibition at 10 µM (NEK7; read-out: inhibition (10 μM)): -50.3%
% inhibition (AMPKa1, AMPKa2): 0.0%
inhibition (10 μM) (AMPKa1, AMPKa2): −20.5%
inhibition at 10 µM (RSK1 domain1; [1]): 0%
inhibition at 10 µM (RSK1 domain1; read-out: inhibition (10 μM)): 5.4%
% inhibition (FYN, SRC, YES): 0.0%
inhibition (10 μM) (FYN, SRC, YES): −36.4%
inhibition at 10 µM (STLK5; [1]): 0%
inhibition at 10 µM (STLK5; read-out: inhibition (10 μM)): -17.1%
inhibition at 10 µM (MAP2K3; [1]): 0%
inhibition at 10 µM (MAP2K3; read-out: inhibition (10 μM)): 0.9%
inhibition (10 μM) (AurA): 43.2%
inhibition at 10 µM (AurA; [1]): 35 to 40%
inhibition at 10 µM (AurA; read-out: inhibition (10 μM)): 46.7%
inhibition at 10 µM (PIP5K3; [1]): 75 to 90%
inhibition at 10 µM (PIP5K3; read-out: inhibition (10 μM)): 84.7%
inhibition at 10 µM (PIP4K2C; [1]): 75 to 90%
inhibition at 10 µM (PIP4K2C; read-out: inhibition (10 μM)): 85.4%
inhibition at 10 µM (MLKL; [1]): 50 to 75%
inhibition at 10 µM (MLKL; read-out: inhibition (10 μM)): 51.4%
inhibition at 10 µM (MSK1 domain1; [1]): 0%
inhibition at 10 µM (MSK1 domain1; read-out: inhibition (10 μM)): 11.4%
inhibition at 10 µM (CDK2; [1]): 35 to 40%
inhibition at 10 µM (CDK2; read-out: inhibition (10 μM)): 35%
% inhibition (IKKe, TBK1): 0.0%
inhibition (10 μM) (IKKe, TBK1): 26.7%
inhibition at 10 µM (p38a): 0%
inhibition (10 μM) (NuaK1): 68.8%
inhibition at 10 µM (NuaK1; [1]): 50 to 75%
inhibition at 10 µM (NuaK1; read-out: inhibition (10 μM)): 71.9%
inhibition at 10 µM (TLK2; [1]): 0%
inhibition at 10 µM (TLK2; read-out: inhibition (10 μM)): -20.1%
IC50 (STK4 (MST1)): < 40 nM
IC50 (STK24 (MST3)): 40 to 200 nM

Nc1ncc(-c2ccc(NS(=O)(=O)C3CC3)cc2OC2CCCCC2)cc1-c1ccc2c(c1)CCNC2=O [Compound I-65, N-(4-(6-amino-5-(1-oxo-1,2,3,4-tetrahydroisoquinolin-6-yl)pyridin-3-yl)-3-(cyclohexyloxy)phenyl) cyclopropanesulfonamide]
inhibition at 10 µM (MAP3K4; [1]): 0%
inhibition at 10 µM (MAP3K4; read-out: inhibition (10 μM)): 10.3%
% inhibition (PI4KA, PI4KAP2): 0.0%
inhibition (10 μM) (PI4KA, PI4KAP2): −2.9%
inhibition at 10 µM (HPK1; [1]): > 90%
inhibition at 10 µM (HPK1; read-out: inhibition (10 μM)): 95.5%
inhibition at 10 µM (PKCi; [1]): 0%
inhibition at 10 µM (PKCi; read-out: inhibition (10 μM)): -41.2%
% inhibition (MST4): 35-40%
inhibition (10 μM) (MST4): 47.7%
inhibition at 10 µM (MST3; [1]): 0%
inhibition at 10 µM (MST3; read-out: inhibition (10 μM)): 31.5%
inhibition at 10 µM (PKN1; read-out: inhibition (10 μM)): 35.9%
inhibition at 10 µM (TLK1; [1]): 0%
inhibition at 10 µM (TLK1; read-out: inhibition (10 μM)): -1.2%
inhibition at 10 µM (CaMKK2; [1]): 75 to 90%
inhibition at 10 µM (CaMKK2; read-out: inhibition (10 μM)): 85.6%
inhibition at 10 µM (PLK1; [1]): 0%
inhibition at 10 µM (PLK1; read-out: inhibition (10 μM)): -10.1%
inhibition at 10 µM (OSR1; [1]): 0%
inhibition at 10 µM (OSR1; read-out: inhibition (10 μM)): 26.8%
inhibition at 10 µM (NEK7; [1]): 0%
inhibition at 10 µM (NEK7; read-out: inhibition (10 μM)): -80%
% inhibition (AMPKa1, AMPKa2): 35-40%
inhibition (10 μM) (AMPKa1, AMPKa2): 39.0%
inhibition at 10 µM (RSK1 domain1; [1]): 50 to 75%
inhibition at 10 µM (RSK1 domain1; read-out: inhibition (10 μM)): 59.9%
% inhibition (FYN, SRC, YES): 0.0%
inhibition (10 μM) (FYN, SRC, YES): −8.4%
inhibition at 10 µM (STLK5; [1]): 0%
inhibition at 10 µM (STLK5; read-out: inhibition (10 μM)): -38.6%
inhibition at 10 µM (MAP2K3; [1]): 0%
inhibition at 10 µM (MAP2K3; read-out: inhibition (10 μM)): -6.1%
inhibition (10 μM) (AurA): 40.2%
inhibition at 10 µM (AurA; [1]): 35 to 40%
inhibition at 10 µM (AurA; read-out: inhibition (10 μM)): 45.4%
inhibition at 10 µM (PIP5K3; [1]): > 90%
inhibition at 10 µM (PIP5K3; read-out: inhibition (10 μM)): 91.7%
inhibition at 10 µM (PIP4K2C; [1]): > 90%
inhibition at 10 µM (PIP4K2C; read-out: inhibition (10 μM)): 90.2%
inhibition at 10 µM (MLKL; [1]): 0%
inhibition at 10 µM (MLKL; read-out: inhibition (10 μM)): 0.2%
inhibition at 10 µM (MSK1 domain1; [1]): 0%
inhibition at 10 µM (MSK1 domain1; read-out: inhibition (10 μM)): -52.5%
inhibition at 10 µM (CDK2; [1]): 0%
inhibition at 10 µM (CDK2; read-out: inhibition (10 μM)): 21.6%
% inhibition (IKKe, TBK1): 75-90%
inhibition (10 μM) (IKKe, TBK1): 81.8%
inhibition at 10 µM (p38a): 0%
inhibition (10 μM) (NuaK1): 61.5%
inhibition at 10 µM (NuaK1; [1]): 50 to 75%
inhibition at 10 µM (NuaK1; read-out: inhibition (10 μM)): 66.8%
inhibition at 10 µM (TLK2; [1]): 0%
inhibition at 10 µM (TLK2; read-out: inhibition (10 μM)): -3.5%
IC50 (STK4 (MST1)): < 40 nM
IC50 (STK24 (MST3)): > 900 nM
